In patent publication US20080227638A1, “Use of abscisic acid to enhance growth control” (priority 2007, published 2008):

Tests used:
Assay type in all cases: in vivo
Kentucky bluegrass = assay: Greenhouse Kentucky bluegrass height and quality, ABA and trinexapac-ethyl (Example 1); settings: 200 ppm ABA
Method: Greenhouse studies were conducted at the Research Farm of Valent BioSciences Corporation (Long Grove, Ill.). Grasses were grown in pots (18 cm in diameter and 18 cm in height) filled with Promix BX (available from Premier Horticulture Inc. Quakertown, Pa.). Grass was irrigated daily by an overhead irrigation system. The irrigation system was set up with multiple Tornado Mist Spray Heads (10 GPH at 40 PSI-Wetted diameter, NDS/Raindrip, Woodland Hills, Calif.). Spray heads were 1-meter apart from each other and 75 cm above grass canopy. Grass was cut with a scissor at 2.5 cm height and fertilizer (1 g/L all purpose fertilizer 20-20-20, available from The Scotts Company, Marysville, Ohio) was applied once per week.
(§1) Chemical solutions were prepared with distilled water. Tween 20 (0.05% v/v) was used as an, adjuvant. Both trinexapac-ethyl (commercial product Primo Maxx, 11.3% active ingredient) and paclobutrazol (commercial product Trimmit 2SC, 22.3% active ingredient) were purchased from Syngenta Crop Protection Inc. (Greensboro, N.C.). Uniconazole-P (commercial product Sumagic, 0.55% active ingredient) was obtained from Valent U.S.A. Corporation (Walnut Creek, Calif.).
(§2) When treated with paclobutrazol or uniconazole-P, turfgrass received irrigation within 24 hours after application to flush chemicals to the root zone. After treatment, turfgrasses were arranged in a randomized complete block experimental design. Turfgrass quality, turfgrass height or clip fresh weight was measured on assigned dates. Turfgrass quality was visually rated on a 0-9 scale based on the color, uniformity and density of the grass with 0 as the worst and 9 as the best. Turfgrass height was measured as the distance between canopy surface and soil. Clips were collected from each plot; all plots were cut to a uniform height.
(§3) All experiments were randomized complete block experimental design. Data were analyzed by analysis of variance. Duncan's new multiple range tests at α=0.05 were used for mean separations.
Kentucky bluegrass sod (unknown variety) was purchased from Deak sod farms, Inc. (Union Grove, Wis.). Grass was grown in the greenhouse in pots (n=6 pots per treatment) for establishment before treatment. […] Tween 20 (0.05% w/v) was included as an adjuvant. Turfgrass canopy was not cut during the experimental period.

creeping bentgrass green = assay: Soil moisture of creeping bentgrass green, ABA and trinexapac-ethyl (Example 8); settings: 500 ppm ABA
Method: (§4) Field studies were conducted at the nursery green or the practice green at Countryside golf course (Mundelein, Ill.). Both greens were sand based and growing Penncross creeping bentgrass. Grass was managed with typical Illinois golf course management practices.
as §1, §2, §3
(§5) Tween 20 (0.05% w/v) was included as an adjuvant.

[1] = tested on: tomato (variety: Rutgers); assay: Tomato plant height, growth rate and leaf number (Example 9); settings: for Leaf number: 15 days after treatment
Excerpt: (§6) Tomato (variety: Rutgers) seeds were sown in 18-cell flat filled with Promix PGX (available from Premier Horticulture Inc. Quakertown, Pa.) and grown for 3 weeks to allow for germination and initial growth. Plants were then transplanted into pots (18 cm in diameter and 18 cm in height), filled with Promix BX (available from Premier Horticulture Inc. Quakertown, Pa.), and grown for one week before the chemical treatment. Plants received daily irrigation and weekly fertilizer (1 g/L all purpose fertilizer 20-20-20, available from The Scotts Company, Marysville, Ohio).
(§7) During the chemical treatment, a 15 mL (2.5 mL/plant) solution was foliar sprayed on the tomato canopy. Leaf transpiration rates were measured using a LI-1600 Steady State Porometer (LI-Cor, Lincoln, Nebr.) at 1, 2, 3, 4, 7, 10 and 15 days after treatment. Leaf transpiration rate was normalized to the percentage of control plant to minimize the experimental errors caused by environmental factors. Plant height was measured at 0, 2, 4, 7, 10 and 15 days after treatment. Growth rate was calculated based on the changes of plant height in certain intervals. The plants were harvested and the leaf number was counted at 15 days after treatment.

creeping bentgrass = assay: Golf course green creeping bentgrass height, ABA and trinexapac-ethyl (Example 4); settings: 200 ppm ABA
Method: as §4, §1, §2, §3, §5

[2] = tested on: tomato (variety: Rutgers); assay: Tomato leaf transpiration, porometer (Example 9)
Excerpt: as §6, §7

[3] = 250 ppm ABA, day 2 after treatment
[4] = 250 ppm ABA, day 4 after treatment
[5] = 250 ppm ABA, day 7 after treatment
[6] = 250 ppm ABA, day 10 after treatment
[7] = 250 ppm ABA, day 15 after treatment
[8] = 500 ppm ABA, day 2 after treatment
[9] = 500 ppm ABA, day 4 after treatment
[10] = 500 ppm ABA, day 7 after treatment
[11] = 500 ppm ABA, day 10 after treatment
[12] = 500 ppm ABA, day 15 after treatment
[13] = 1000 ppm ABA, day 2 after treatment
[14] = 1000 ppm ABA, day 4 after treatment
[15] = 1000 ppm ABA, day 7 after treatment
[16] = 1000 ppm ABA, day 10 after treatment
[17] = 1000 ppm ABA, day 15 after treatment
[18] = 2000 ppm ABA, day 2 after treatment
[19] = 2000 ppm ABA, day 4 after treatment
[20] = 2000 ppm ABA, day 7 after treatment
[21] = 2000 ppm ABA, day 10 after treatment
[22] = 2000 ppm ABA, day 15 after treatment

S-abscisic acid [ABA] gave a Turfgrass height (Kentucky bluegrass; 7 days after treatment) of 9.4 cm, a Turfgrass height (Kentucky bluegrass; 23 days after treatment) of 19.0 cm and a Soil moisture (creeping bentgrass green; 2 days after treatment) of 11.4%. It also gave a Soil moisture (creeping bentgrass green; 7 days after treatment) of 10.9%, a Leaf number ([1]; 250 ppm ABA) of 12.2 and a Plant height ([1]; 250 ppm ABA, day 0 after treatment) of 9.9 cm. The Growth rate [1, 3] was 1.5 cm/day, the Plant height [1, 3] was 12.8 cm and the Growth rate [1, 4] was 1.6 cm/day. For the same substance, the Plant height [1, 4] was 16.3 cm, the Growth rate [1, 5] was 2.7 cm/day and the Plant height [1, 5] was 28.5 cm. It also gave a Growth rate [1, 6] of 2.1 cm/day, a Plant height [1, 6] of 30.4 cm and a Growth rate [1, 7] of 2.3 cm/day. For the same substance, the Plant height [1, 7] was 45.5 cm, the Leaf number ([1]; 500 ppm ABA) was 12.0 and the Plant height ([1]; 500 ppm ABA, day 0 after treatment) was 10.1 cm. The Growth rate [1, 8] was 1.3 cm/day, the Plant height [1, 8] was 12.5 cm and the Growth rate [1, 9] was 1.6 cm/day. It also gave a Plant height [1, 9] of 16.3 cm, a Growth rate [1, 10] of 2.4 cm/day and a Plant height [1, 10] of 27.0 cm. The Growth rate [1, 11] was 2.0 cm/day, the Plant height [1, 11] was 29.6 cm and the Growth rate [1, 12] was 2.3 cm/day. For the same substance, the Plant height [1, 12] was 44.1 cm, the Leaf number ([1]; 1000 ppm ABA) was 12.0 and the Plant height ([1]; 1000 ppm ABA, day 0 after treatment) was 9.8 cm. The Growth rate [1, 13] was 1.0 cm/day, the Plant height [1, 13] was 11.7 cm and the Growth rate [1, 14] was 1.2 cm/day. The Plant height [1, 14] was 14.5 cm, the Growth rate [1, 15] was 2.2 cm/day and the Plant height [1, 15] was 25.3 cm. It also gave a Growth rate [1, 16] of 1.8 cm/day, a Plant height [1, 16] of 27.4 cm and a Growth rate [1, 17] of 2.0 cm/day. For the same substance, the Plant height [1, 17] was 41.6 cm, the Leaf number ([1]; 2000 ppm ABA) was 12.0 and the Plant height ([1]; 2000 ppm ABA, day 0 after treatment) was 9.8 cm. It also gave a Growth rate [1, 18] of 0.9 cm/day, a Plant height [1, 18] of 11.5 cm and a Growth rate [1, 19] of 1.3 cm/day. The Plant height [1, 19] was 14.9 cm, the Growth rate [1, 20] was 1.9 cm/day and the Plant height [1, 20] was 23.2 cm. For the same substance, the Growth rate [1, 21] was 1.6 cm/day, the Plant height [1, 21] was 25.8 cm and the Growth rate [1, 22] was 1.9 cm/day. The Plant height [1, 22] was 40.5 cm, the Turfgrass height (creeping bentgrass; 7 days after treatment) was 5.3 cm and the Turfgrass height (creeping bentgrass; 14 days after treatment) was 8.2 cm. For the same substance, the Transpiration ([2]; 250 ppm ABA, day 1 after treatment) was 87 % of control, the Transpiration [2, 3] was 86 % of control and the Transpiration ([2]; 250 ppm ABA, day 3 after treatment) was 91 % of control. The Transpiration [2, 4] was 95 % of control, the Transpiration [2, 5] was 99 % of control and the Transpiration [2, 6] was 98 % of control. For the same substance, the Transpiration [2, 7] was 99 % of control, the Transpiration ([2]; 500 ppm ABA, day 1 after treatment) was 78 % of control and the Transpiration [2, 8] was 78 % of control. For the same substance, the Transpiration ([2]; 500 ppm ABA, day 3 after treatment) was 84 % of control, the Transpiration [2, 9] was 88 % of control and the Transpiration [2, 10] was 98 % of control. For the same substance, the Transpiration [2, 11] was 99 % of control, the Transpiration [2, 12] was 99 % of control and the Transpiration ([2]; 1000 ppm ABA, day 1 after treatment) was 60 % of control. The Transpiration [2, 13] was 73 % of control, the Transpiration ([2]; 1000 ppm ABA, day 3 after treatment) was 76 % of control and the Transpiration [2, 14] was 84 % of control. The Transpiration [2, 15] was 93 % of control, the Transpiration [2, 16] was 99 % of control and the Transpiration [2, 17] was 97 % of control. For the same substance, the Transpiration ([2]; 2000 ppm ABA, day 1 after treatment) was 46 % of control, the Transpiration [2, 18] was 58 % of control and the Transpiration ([2]; 2000 ppm ABA, day 3 after treatment) was 70 % of control. The Transpiration [2, 19] was 76 % of control, the Transpiration [2, 20] was 85 % of control and the Transpiration [2, 21] was 95 % of control. For the same substance, the Transpiration [2, 22] was 100 % of control.
